Measured values reported in ChEMBL document CHEMBL5465560, “Selectivity Literature for EUbOPEN Chemogenomic Library” (2024).
One block for each molecule: values may come before it.

Columns and labels:
[1] = molecular target: Serine/threonine-protein kinase pim-1 (Homo sapiens, UniProt P11309); assay: Selectivity interaction (Millipore kinase profiler) EUB0000124b PIM1; conditions: at 10 µM
[2] = molecular target: Serine/threonine-protein kinase PAK 3 (Homo sapiens) (UniProt O75914); assay: Selectivity interaction (Ambit KINOMEscan and KiNATiv profiling in Jurkat cells) EUB0000090b PAK3; type: cell-based; conditions: at 1 µM
Sequence of Serine/threonine-protein kinase PAK 3 (Homo sapiens) (O75914 whole entry, looked up): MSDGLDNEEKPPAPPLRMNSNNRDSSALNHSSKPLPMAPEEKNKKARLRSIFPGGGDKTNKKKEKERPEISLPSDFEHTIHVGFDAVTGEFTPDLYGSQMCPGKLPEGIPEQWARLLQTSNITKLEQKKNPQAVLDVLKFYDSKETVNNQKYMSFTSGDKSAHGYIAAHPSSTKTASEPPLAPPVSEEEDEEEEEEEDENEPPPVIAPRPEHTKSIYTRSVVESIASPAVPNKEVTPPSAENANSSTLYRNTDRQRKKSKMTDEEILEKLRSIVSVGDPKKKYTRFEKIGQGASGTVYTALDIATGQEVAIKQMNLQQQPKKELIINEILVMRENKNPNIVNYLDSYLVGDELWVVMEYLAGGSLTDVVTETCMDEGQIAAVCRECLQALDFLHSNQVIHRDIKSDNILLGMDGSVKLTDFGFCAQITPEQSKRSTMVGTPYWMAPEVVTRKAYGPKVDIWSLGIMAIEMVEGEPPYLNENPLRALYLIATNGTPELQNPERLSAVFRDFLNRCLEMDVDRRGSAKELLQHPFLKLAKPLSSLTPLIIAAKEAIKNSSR

[3] = molecular target: Cyclin-dependent kinase 4 (Homo sapiens, UniProt P11802); assay: Selectivity interaction (ActivX KiNativ screen (kinase selectivity in THP-1 cell lysates)) EUB0000639a CDK4; type: subcellular; conditions: lysate
Sequence of Cyclin-dependent kinase 4 (P11802 whole entry): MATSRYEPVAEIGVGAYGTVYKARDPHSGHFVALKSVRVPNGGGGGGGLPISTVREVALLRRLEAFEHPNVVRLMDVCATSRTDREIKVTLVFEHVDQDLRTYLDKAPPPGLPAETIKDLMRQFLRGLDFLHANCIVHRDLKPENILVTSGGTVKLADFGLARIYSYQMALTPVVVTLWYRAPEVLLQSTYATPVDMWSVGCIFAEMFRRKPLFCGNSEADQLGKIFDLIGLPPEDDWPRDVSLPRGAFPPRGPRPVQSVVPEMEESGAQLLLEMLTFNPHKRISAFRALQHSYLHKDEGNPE

[4] = molecular target: Dual specificity mitogen-activated protein kinase kinase 2 (Homo sapiens) (UniProt P36507); assay: Selectivity interaction (Kinase panel (Invitrogen)) EUB0000639a MAP2K2; conditions: at 200 nM
[5] = molecular target: T1, NUAK family SNF1-like kinase 1 (Homo sapiens) (UniProt O60285); assay: Selectivity interaction (Adapta Assay) EUB0001632a NUAK1; conditions: at 10 µM
T1 sequence (whole entry): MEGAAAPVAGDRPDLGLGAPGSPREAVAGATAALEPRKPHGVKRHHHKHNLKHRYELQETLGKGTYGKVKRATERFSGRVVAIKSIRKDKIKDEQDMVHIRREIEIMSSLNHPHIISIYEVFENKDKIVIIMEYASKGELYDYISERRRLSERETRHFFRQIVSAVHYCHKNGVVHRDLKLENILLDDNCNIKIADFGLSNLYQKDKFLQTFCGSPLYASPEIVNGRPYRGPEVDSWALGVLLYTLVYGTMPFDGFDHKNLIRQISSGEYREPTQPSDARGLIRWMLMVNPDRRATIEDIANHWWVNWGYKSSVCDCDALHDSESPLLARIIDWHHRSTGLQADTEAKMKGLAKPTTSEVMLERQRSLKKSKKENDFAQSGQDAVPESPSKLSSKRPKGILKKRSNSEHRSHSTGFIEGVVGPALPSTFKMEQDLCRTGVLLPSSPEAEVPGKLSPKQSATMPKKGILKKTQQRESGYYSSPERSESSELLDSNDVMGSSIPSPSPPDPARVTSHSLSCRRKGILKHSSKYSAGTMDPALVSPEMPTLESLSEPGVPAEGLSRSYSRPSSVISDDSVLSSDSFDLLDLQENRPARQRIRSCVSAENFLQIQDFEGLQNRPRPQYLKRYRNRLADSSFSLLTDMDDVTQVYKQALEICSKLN

[6] = molecular target: Serine/threonine-protein kinase PLK3 (Homo sapiens, UniProt Q9H4B4); conditions: at 10 µM
[7] = molecular target: Proto-oncogene tyrosine-protein kinase ROS (Homo sapiens) (UniProt P08922); conditions: at 10 µM
Insulin receptor = Insulin receptor (Homo sapiens, UniProt P06213); assay: Selectivity interaction (KinomeScan (DiscoverX)) EUB0001079a INSR; conditions: at 1 µM
[8] = molecular target: Mitogen-activated protein kinase kinase kinase 1 (Homo sapiens, UniProt Q13233); assay: Selectivity interaction (ProQinase) EUB0000171b MAP3K1
Sequence of Mitogen-activated protein kinase kinase kinase 1 (Q13233 whole entry): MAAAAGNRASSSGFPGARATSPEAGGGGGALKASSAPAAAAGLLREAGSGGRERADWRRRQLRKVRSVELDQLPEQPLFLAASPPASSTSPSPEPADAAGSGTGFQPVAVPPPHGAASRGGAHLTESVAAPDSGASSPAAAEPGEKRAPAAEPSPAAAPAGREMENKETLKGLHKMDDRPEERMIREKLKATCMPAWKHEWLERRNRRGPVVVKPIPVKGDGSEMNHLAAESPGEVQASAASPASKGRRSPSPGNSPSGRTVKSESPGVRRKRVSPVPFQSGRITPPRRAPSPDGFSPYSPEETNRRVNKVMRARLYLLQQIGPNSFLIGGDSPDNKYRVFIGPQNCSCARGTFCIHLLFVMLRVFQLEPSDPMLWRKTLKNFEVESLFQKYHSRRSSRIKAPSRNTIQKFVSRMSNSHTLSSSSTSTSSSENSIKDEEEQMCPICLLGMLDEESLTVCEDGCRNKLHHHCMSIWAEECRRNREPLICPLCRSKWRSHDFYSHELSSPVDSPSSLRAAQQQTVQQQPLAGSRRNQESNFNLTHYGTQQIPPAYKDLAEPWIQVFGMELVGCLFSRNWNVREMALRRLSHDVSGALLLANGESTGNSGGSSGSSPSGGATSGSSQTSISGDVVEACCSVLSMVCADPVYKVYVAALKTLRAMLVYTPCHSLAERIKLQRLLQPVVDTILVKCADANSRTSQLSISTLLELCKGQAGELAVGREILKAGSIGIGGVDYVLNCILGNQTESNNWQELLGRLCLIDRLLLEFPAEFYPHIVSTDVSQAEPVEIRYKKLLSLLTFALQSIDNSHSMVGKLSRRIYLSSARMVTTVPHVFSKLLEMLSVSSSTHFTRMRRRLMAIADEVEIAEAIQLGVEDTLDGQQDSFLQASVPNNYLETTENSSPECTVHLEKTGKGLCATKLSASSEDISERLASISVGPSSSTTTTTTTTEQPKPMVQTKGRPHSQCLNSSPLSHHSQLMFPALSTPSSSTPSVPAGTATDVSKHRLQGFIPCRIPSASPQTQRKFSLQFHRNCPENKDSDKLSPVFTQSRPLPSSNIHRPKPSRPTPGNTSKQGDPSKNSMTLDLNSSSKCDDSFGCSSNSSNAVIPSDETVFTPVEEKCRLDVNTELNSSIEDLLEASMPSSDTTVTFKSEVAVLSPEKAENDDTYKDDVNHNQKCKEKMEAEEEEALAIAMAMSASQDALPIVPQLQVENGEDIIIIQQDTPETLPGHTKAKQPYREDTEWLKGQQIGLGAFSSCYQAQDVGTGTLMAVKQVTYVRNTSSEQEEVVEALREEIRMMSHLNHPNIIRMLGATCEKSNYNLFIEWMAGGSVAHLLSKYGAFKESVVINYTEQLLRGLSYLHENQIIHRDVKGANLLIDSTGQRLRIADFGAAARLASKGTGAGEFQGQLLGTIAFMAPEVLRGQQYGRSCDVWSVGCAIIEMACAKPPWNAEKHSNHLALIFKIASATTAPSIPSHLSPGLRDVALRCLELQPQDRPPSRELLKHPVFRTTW

[9] = molecular target: T2, Mitogen-activated protein kinase kinase kinase 7 (Homo sapiens) (UniProt O43318); assay: Selectivity interaction (KinomeScan (DiscoverX)) EUB0000045b MAP3K7
T2 sequence (whole entry): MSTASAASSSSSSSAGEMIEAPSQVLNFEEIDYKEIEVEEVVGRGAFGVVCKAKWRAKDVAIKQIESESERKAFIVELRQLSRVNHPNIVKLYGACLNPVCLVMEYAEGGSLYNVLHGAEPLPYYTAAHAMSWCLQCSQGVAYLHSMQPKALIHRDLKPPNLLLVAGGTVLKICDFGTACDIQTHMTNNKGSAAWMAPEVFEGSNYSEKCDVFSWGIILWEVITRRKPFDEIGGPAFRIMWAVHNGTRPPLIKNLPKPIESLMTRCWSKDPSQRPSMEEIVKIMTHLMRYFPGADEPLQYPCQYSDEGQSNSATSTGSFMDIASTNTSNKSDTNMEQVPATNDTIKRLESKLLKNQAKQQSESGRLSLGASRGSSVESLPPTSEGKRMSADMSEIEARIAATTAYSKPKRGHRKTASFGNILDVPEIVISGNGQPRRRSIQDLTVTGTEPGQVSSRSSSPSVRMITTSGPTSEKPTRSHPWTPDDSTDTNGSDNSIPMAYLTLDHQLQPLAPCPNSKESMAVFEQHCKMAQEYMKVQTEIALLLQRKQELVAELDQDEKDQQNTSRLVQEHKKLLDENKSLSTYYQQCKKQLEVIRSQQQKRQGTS

[10] = molecular target: Mitogen-activated protein kinase kinase kinase kinase 5 (Homo sapiens) (UniProt Q9Y4K4); assay: Selectivity interaction (KinomeScan (DiscoverX)) EUB0000045b MAP4K5
Sequence of Mitogen-activated protein kinase kinase kinase kinase 5 (Homo sapiens) (Q9Y4K4 whole entry, looked up): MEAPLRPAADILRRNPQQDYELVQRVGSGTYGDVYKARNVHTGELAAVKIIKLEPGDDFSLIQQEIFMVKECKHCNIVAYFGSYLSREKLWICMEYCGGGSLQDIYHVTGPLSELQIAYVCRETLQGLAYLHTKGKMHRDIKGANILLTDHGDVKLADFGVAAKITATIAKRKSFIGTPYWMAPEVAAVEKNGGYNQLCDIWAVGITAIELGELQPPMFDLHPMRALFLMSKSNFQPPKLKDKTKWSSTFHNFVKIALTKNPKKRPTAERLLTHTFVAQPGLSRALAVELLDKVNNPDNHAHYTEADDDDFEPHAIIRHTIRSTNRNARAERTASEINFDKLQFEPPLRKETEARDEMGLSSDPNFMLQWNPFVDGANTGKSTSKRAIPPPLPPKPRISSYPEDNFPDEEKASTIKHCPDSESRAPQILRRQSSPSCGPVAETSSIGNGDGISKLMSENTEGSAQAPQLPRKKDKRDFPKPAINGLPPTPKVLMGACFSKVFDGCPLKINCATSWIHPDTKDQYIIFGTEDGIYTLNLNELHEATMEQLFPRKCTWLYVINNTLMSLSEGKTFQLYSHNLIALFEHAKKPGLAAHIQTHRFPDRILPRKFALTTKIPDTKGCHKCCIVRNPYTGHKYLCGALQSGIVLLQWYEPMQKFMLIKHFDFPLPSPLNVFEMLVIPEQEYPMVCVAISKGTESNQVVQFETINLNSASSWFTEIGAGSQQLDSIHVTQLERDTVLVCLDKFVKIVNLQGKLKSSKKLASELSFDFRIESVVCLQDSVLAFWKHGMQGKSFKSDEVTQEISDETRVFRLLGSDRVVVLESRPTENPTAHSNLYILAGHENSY

[11] = molecular target: Tyrosine-protein kinase FRK (Homo sapiens) (UniProt P42685); assay: Selectivity interaction (KinomeScan (DiscoverX)) EUB0000655a FRK; conditions: at 10 µM
Sequence of Tyrosine-protein kinase FRK (Homo sapiens) (P42685 whole entry): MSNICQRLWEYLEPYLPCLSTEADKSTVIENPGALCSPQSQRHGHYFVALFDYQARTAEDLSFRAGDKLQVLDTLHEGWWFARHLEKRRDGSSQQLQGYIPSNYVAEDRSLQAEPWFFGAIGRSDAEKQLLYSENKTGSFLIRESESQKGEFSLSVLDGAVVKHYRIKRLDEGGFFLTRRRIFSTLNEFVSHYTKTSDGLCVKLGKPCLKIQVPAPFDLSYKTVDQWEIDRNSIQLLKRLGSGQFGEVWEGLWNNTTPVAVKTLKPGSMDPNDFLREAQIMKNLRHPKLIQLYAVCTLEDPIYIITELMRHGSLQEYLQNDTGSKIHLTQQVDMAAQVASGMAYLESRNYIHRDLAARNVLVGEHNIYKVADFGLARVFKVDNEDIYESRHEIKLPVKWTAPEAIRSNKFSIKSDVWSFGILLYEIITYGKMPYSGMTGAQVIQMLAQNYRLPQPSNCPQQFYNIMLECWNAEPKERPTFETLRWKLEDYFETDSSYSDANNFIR

[12] = molecular target: Ribosomal protein S6 kinase alpha-3 (Homo sapiens, UniProt P51812); assay: Selectivity interaction (KinomeScan (DiscoverX)) EUB0001619a RPS6KA3; conditions: at 1 µM
[13] = molecular target: Serine/threonine-protein kinase 32B (Homo sapiens) (UniProt Q9NY57); assay: Selectivity interaction (KinomeScan (DiscoverX)) EUB0001619a STK32B; conditions: at 1 µM
[14] = molecular target: Tyrosine-protein kinase JAK2 (Homo sapiens, UniProt O60674); assay: Selectivity interaction (KinomeScan (DiscoverX)) EUB0000607a JAK2; conditions: at 10 µM
Sequence of Tyrosine-protein kinase JAK2 (O60674 whole entry): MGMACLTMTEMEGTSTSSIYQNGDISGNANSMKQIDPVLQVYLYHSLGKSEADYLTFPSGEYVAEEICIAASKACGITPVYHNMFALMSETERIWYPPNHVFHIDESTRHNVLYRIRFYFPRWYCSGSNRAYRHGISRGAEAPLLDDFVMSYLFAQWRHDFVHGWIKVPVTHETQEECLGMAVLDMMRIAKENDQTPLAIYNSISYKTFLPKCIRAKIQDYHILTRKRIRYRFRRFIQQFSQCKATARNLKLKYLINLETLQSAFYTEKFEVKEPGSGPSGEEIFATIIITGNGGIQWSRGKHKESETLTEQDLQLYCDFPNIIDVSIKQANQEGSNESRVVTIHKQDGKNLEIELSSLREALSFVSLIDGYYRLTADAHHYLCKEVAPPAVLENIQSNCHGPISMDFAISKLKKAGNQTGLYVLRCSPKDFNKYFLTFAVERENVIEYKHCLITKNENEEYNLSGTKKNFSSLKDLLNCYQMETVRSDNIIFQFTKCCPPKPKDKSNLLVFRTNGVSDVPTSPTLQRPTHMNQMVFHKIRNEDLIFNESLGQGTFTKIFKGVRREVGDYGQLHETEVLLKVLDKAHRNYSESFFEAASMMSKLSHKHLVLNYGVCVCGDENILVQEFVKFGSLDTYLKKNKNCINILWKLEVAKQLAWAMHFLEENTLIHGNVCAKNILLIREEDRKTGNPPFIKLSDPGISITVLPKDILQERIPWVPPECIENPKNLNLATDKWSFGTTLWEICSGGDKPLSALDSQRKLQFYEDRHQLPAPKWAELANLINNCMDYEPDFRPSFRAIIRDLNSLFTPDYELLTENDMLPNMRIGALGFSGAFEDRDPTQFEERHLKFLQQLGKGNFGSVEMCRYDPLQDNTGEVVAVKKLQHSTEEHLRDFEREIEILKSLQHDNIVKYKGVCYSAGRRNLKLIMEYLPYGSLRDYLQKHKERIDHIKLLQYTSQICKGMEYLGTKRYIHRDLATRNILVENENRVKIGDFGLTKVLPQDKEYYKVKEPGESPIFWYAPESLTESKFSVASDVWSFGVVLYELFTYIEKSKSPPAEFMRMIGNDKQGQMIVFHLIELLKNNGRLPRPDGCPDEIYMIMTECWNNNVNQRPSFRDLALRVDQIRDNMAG

[15] = molecular target: Serine/threonine-protein kinase 38 (Homo sapiens) (UniProt Q15208); assay: Selectivity interaction (KinomeScan (DiscoverX)) EUB0000607a STK38; conditions: at 10 µM

% of control [1]: 94%
SMILES: CC(=O)Nc1cccc(-n2c(=O)n(C3CC3)c(=O)c3c(Nc4ccc(I)cc4F)n(C)c(=O)c(C)c32)c1

SMILES: CN(C)C/C=C/C(=O)Nc1ccc(C(=O)N2CCCC(Nc3ncc(Cl)c(-c4c[nH]c5ccccc45)n3)C2)cc1 (stereo not drawn)
% of control [2]: 80%

% of inhibition ([3]; at 0.01 µM): -1.8% | % of inhibition ([3]; at 0.04 µM): -3.4% | % of inhibition ([3]; at 0.2 µM): -2.3% | % of inhibition ([3]; at 1 µM): -9.6% | % of inhibition ([3]; at 5 µM): -24.4% | % of inhibition [4]: 5.73%
SMILES: CC[C@@H]1[C@H](F)C(=O)N[C@@H]1COc1nccc2cc(C(N)=O)c(OC)cc12 [ZIMLOVISERTIB]

% of inhibition [5]: 15.2%
SMILES: Cn1cc(-n2cnc3c(NCc4nc5cc(Cl)c(Cl)cc5[nH]4)nc(N4CCOCC4)nc32)cn1

% of control [6]: 100% | % of control [7]: 100%
SMILES: CCN(CC)CCCCNc1ncc2cc(-c3cc(OC)cc(OC)c3)c(NC(=O)NC(C)(C)C)nc2n1

SMILES: Nc1cnc(N2CCc3cc(S(=O)(=O)Nc4c(F)cc(Cl)cc4F)cc(N4CCCC4=O)c32)nc1 [TP-020n]
% of control (Insulin receptor): 89%

% of control ([8]; at 1 µM): 100% | % of control ([8]; at 5 µM): 96%
SMILES: C=CC(=O)Nc1cccc(C(=O)Nc2ccc(Nc3cc(-c4[nH]c(SC)nc4C)ccn3)cc2)c1

SMILES: C=CC(=O)Nc1cc(-n2c(=O)ccc3cnc4ccc(-c5ccc(NS(C)(=O)=O)cc5)cc4c32)ccc1C
% of control ([9]; at 1 µM): 83% | % of control ([9]; at 10 µM): 78% | % of control ([10]; at 1 µM): 100% | % of control ([10]; at 10 µM): 74%

SMILES: CN(C)CCOc1ccc(-c2nc(-c3ccncc3)c(-c3ccc4c(c3)CC/C4=N\O)[nH]2)cc1
% of control [11]: 96%

SMILES: N#Cc1cccc(-c2c[nH]c3ncnc(N4CCOCC4)c23)c1
% of control [12]: 46% | % of control [13]: 53%

SMILES: CNC(=O)Nc1ccc(-c2nc(N3CC4CCC(C3)O4)c3cnn(C4CCC5(CC4)OCCO5)c3n2)cc1
% of control [14]: 100% | % of control [15]: 100%
